Data reported in article PMC10653547, “Synergistic effect of two antimicrobial peptides, BP203 and MAP-0403 J-2 with conventional antibiotics against colistin-resistant Escherichia coli and Klebsiella pneumoniae clinical isolates” (PLOS ONE, 2023).

Legend:
[1] = tested on: colistin-resistant E. coli clinical isolates; assay: Checkerboard assay for synergy testing; format: cell-based, Escherichia coli; settings: checkerboard Ceftazedime+BP203
Method: (§1) The synergistic activities of various two-antimicrobial combinations against colistin-resistant E. coli and K. pneumoniae isolates were evaluated using the checkerboard assay, which was performed in 96-well plates. […] Two-fold serial dilutions of peptides and antibiotics were independently prepared in CAMHB. Afterward, a mixture of different concentrations of the antibiotics and peptides was added to the wells of the microplates. Antibiotics and peptides were also dispended alone in the first row and the first column, respectively. Bacterial inoculum was added to the 96-well plate to achieve a final concentration of 5 × 10^5 CFU/mL. Then, plates were incubated at 37 °C for 20–24 h. MICs were recorded as the minimum concentration of antimicrobial agents without bacterial growth. The interaction between the antimicrobials was determined by calculating the fractional inhibitory concentration index (FICI) according to the formula: FICI = FIC(drug A) + FIC(drug B), where FIC = the MIC of the drug when in the combination/MIC of drug tested individually.

[2] = tested on: colistin-resistant K. pneumoniae clinical isolates; assay: Checkerboard assay for synergy testing; format: cell-based, Klebsiella pneumoniae
Method: as §1

[3] = isolate KP-01, checkerboard Ceftazedime+BP203
[4] = isolate KP-02, checkerboard Ceftazedime+BP203
[5] = isolate KP-03, checkerboard Ceftazedime+BP203
[6] = isolate KP-04, checkerboard Ceftazedime+BP203
[7] = isolate KP-05, checkerboard Ceftazedime+BP203
[8] = isolate KP-06, checkerboard Ceftazedime+BP203
[9] = isolate KP-07, checkerboard Ceftazedime+BP203
[10] = isolate KP-08, checkerboard Ceftazedime+BP203
[11] = isolate KP-09, checkerboard Ceftazedime+BP203
[12] = isolate KP-10, checkerboard Ceftazedime+BP203
[13] = checkerboard BP203 x meropenem, KP-01
[14] = checkerboard BP203 x meropenem, KP-02
[15] = checkerboard BP203 x meropenem, KP-03
[16] = checkerboard BP203 x meropenem, KP-04
[17] = checkerboard BP203 x meropenem, KP-05
[18] = checkerboard BP203 x meropenem, KP-06
[19] = checkerboard BP203 x meropenem, KP-08
[20] = checkerboard BP203 x meropenem, KP-09
[21] = checkerboard BP203 x meropenem, KP-10
[22] = checkerboard MAP-0403 J-2 x meropenem, KP-01
[23] = checkerboard MAP-0403 J-2 x meropenem, KP-02
[24] = checkerboard MAP-0403 J-2 x meropenem, KP-03
[25] = checkerboard MAP-0403 J-2 x meropenem, KP-05
[26] = checkerboard MAP-0403 J-2 x meropenem, KP-06
[27] = checkerboard MAP-0403 J-2 x meropenem, KP-07
[28] = checkerboard MAP-0403 J-2 x meropenem, KP-08
[29] = checkerboard MAP-0403 J-2 x meropenem, KP-09
[30] = checkerboard MAP-0403 J-2 x meropenem, KP-10

Work on `CC(C)(O/N=C(\C(=O)N[C@@H]1C(=O)N2C(C(=O)[O-])=C(C[n+]3ccccc3)CS[C@H]12)c1csc(N)n1)C(=O)O` [Ceftazedime] yielded an MIC alone ([1]; isolate EC-01) of 8 µg/mL, an MIC combination ([1]; isolate EC-01) of 4 µg/mL and an MIC alone ([1]; isolate EC-02) of 16 µg/mL. For the same compound, the MIC combination ([1]; isolate EC-02) was 4 µg/mL, the MIC alone ([1]; isolate EC-03) was 32 µg/mL and the MIC combination ([1]; isolate EC-03) was 8 µg/mL. It also gave an MIC alone ([1]; isolate EC-04) of 32 µg/mL, an MIC combination ([1]; isolate EC-04) of 8 µg/mL and an MIC alone ([1]; isolate EC-05) of 1 µg/mL. It also gave an MIC combination ([1]; isolate EC-05) of 0.25 µg/mL, an MIC alone ([1]; isolate EC-06) of 16 µg/mL and an MIC combination ([1]; isolate EC-06) of 0.5 µg/mL. It also gave an MIC alone ([1]; isolate EC-07) of 16 µg/mL, an MIC combination ([1]; isolate EC-07) of 8 µg/mL and an MIC alone ([1]; isolate EC-08) of 0.5 µg/mL. The MIC combination ([1]; isolate EC-08) was 0.25 µg/mL, the MIC alone ([1]; isolate EC-09) was 16 µg/mL and the MIC combination ([1]; isolate EC-09) was 8 µg/mL. The MIC alone ([1]; isolate EC-10) was 8 µg/mL, the MIC combination ([1]; isolate EC-10) was 4 µg/mL and the MIC alone [2, 3] was 128 µg/mL. It also gave an MIC combination [2, 3] of 8 µg/mL, an MIC alone [2, 4] of 128 µg/mL and an MIC combination [2, 4] of 16 µg/mL. It also gave an MIC alone [2, 5] of 512 µg/mL, an MIC combination [2, 5] of 128 µg/mL and an MIC alone [2, 6] of 512 µg/mL. The MIC combination [2, 6] was 512 µg/mL, the MIC alone [2, 7] was 512 µg/mL and the MIC combination [2, 7] was 4 µg/mL. It also gave an MIC alone [2, 8] of 256 µg/mL, an MIC combination [2, 8] of 16 µg/mL and an MIC alone [2, 9] of 1020 µg/mL. For the same compound, the MIC combination [2, 9] was 512 µg/mL, the MIC alone [2, 10] was 512 µg/mL and the MIC combination [2, 10] was 64 µg/mL. For the same compound, the MIC alone [2, 11] was 512 µg/mL, the MIC combination [2, 11] was 128 µg/mL and the MIC alone [2, 12] was 512 µg/mL. For the same compound, the MIC combination [2, 12] was 32 µg/mL.
Work on `C[C@@H](O)[C@H]1C(=O)N2C(C(=O)O)=C(S[C@@H]3CN[C@H](C(=O)N(C)C)C3)[C@H](C)[C@H]12` [Meropenem, meropenem] yielded an MIC alone [2, 13] of 8 µg/mL, an MIC combination [2, 13] of 2 µg/mL and an MIC alone [2, 14] of 16 µg/mL. The MIC combination [2, 14] was 4 µg/mL, the MIC alone [2, 15] was 64 µg/mL and the MIC combination [2, 15] was 16 µg/mL. It also gave an MIC alone [2, 16] of 256 µg/mL, an MIC combination [2, 16] of 64 µg/mL and an MIC alone [2, 17] of 64 µg/mL. For the same compound, the MIC combination [2, 17] was 16 µg/mL, the MIC alone [2, 18] was 16 µg/mL and the MIC combination [2, 18] was 4 µg/mL. For the same compound, the MIC combination ([2]; checkerboard BP203 x meropenem, KP-07) was 32 µg/mL, the MIC alone [2, 19] was 64 µg/mL and the MIC combination [2, 19] was 8 µg/mL. It also gave an MIC alone [2, 20] of 64 µg/mL, an MIC combination [2, 20] of 16 µg/mL and an MIC alone [2, 21] of 16 µg/mL. For the same compound, the MIC combination [2, 21] was 4 µg/mL, the MIC alone [2, 22] was 4 µg/mL and the MIC combination [2, 22] was 2 µg/mL. It also gave an MIC alone [2, 23] of 8 µg/mL, an MIC combination [2, 23] of 8 µg/mL and an MIC alone [2, 24] of 32 µg/mL. It also gave an MIC combination [2, 24] of 0.25 µg/mL, an MIC alone [2, 25] of 32 µg/mL and an MIC combination [2, 25] of 32 µg/mL. For the same compound, the MIC alone [2, 26] was 8 µg/mL, the MIC combination [2, 26] was 4 µg/mL and the MIC alone [2, 27] was 64 µg/mL. The MIC combination [2, 27] was 64 µg/mL, the MIC alone [2, 28] was 64 µg/mL and the MIC combination [2, 28] was 64 µg/mL. It also gave an MIC alone [2, 29] of 64 µg/mL, an MIC combination [2, 29] of 32 µg/mL and an MIC alone [2, 30] of 16 µg/mL. For the same compound, the MIC combination [2, 30] was 8 µg/mL.
